Measured values reported in PubChem BioAssay AID1935 (Broad Institute, 2009).
Results filed as inconclusive are left out. Activity calls are given as the source filed them. The rule behind the calls is not given here.

Test system: BJ-TERT-LT-ST fibroblast viability, ATP luminescence
Assay: cytotoxicity toward BJ-TERT-LT-ST fibroblasts, dose response, cell-based, RAS-independent, luminescence (AID 1935)

CCc1ccc(/C=C2/SC(=S)N(CCC(=O)NCCCN3CCOCC3)C2=O)cc1
EC50: > 15 µM (inactive)

CCc1ccc(/C=C2\SC(=S)N(CCC(=O)NCCCN3CCOCC3)C2=O)cc1
EC50: > 15 µM (inactive)
